Inhibition, Ki and inhibition data for ten compounds are collected here from ChEMBL document CHEMBL1138676, “Liver-selective glucocorticoid antagonists: a novel treatment for type 2 diabetes” (J Med Chem, 2004).

Test [1] can be described thus: Inhibitory activity against rat lymphocytes. Also on record: concentration or dose not given beside the values.
Test [2] concerns the target T1, Glucocorticoid receptor (Homo sapiens, UniProt P04150).
T1 sequence (P04150 whole entry): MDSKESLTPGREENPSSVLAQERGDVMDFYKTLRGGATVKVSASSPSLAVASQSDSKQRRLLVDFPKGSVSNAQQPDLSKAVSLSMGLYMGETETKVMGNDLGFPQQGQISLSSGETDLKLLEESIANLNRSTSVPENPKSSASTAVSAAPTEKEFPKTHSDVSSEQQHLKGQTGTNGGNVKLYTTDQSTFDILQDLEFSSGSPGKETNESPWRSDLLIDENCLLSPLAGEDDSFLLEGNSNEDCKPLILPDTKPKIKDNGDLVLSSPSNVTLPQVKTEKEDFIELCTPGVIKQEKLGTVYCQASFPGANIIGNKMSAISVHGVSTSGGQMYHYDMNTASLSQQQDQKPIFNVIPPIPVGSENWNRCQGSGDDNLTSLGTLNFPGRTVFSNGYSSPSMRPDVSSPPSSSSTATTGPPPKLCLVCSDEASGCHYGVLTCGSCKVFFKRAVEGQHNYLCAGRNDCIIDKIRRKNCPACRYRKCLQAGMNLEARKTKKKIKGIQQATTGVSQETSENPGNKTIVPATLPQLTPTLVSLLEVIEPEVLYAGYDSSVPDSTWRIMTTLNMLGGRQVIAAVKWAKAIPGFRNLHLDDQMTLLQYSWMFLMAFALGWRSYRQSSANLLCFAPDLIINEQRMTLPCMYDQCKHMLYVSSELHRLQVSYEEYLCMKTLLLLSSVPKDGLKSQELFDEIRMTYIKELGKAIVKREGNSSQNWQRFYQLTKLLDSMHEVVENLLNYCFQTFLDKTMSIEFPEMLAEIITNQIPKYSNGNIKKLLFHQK
As to the kind of experiment: Inhibition of human glucocorticoid receptor.

Test [3] deals with Glucocorticoid receptor (Rattus norvegicus) (UniProt P06536). The test is described as follows: Inhibition of glucocorticoid receptor mediated tyrosine aminotransferase activity. Details: concentration or dose not given beside the values. The settings on record: concentration not given here.
Test [4] addresses T1, Glucocorticoid receptor. The test is described as follows: Inhibition of glucocorticoid receptor dependent alkaline phosphatase activity. In kind it is functional.
Test [5] has as its target T2, Androgen receptor (Homo sapiens, UniProt P10275).
T2 sequence (P10275 whole entry): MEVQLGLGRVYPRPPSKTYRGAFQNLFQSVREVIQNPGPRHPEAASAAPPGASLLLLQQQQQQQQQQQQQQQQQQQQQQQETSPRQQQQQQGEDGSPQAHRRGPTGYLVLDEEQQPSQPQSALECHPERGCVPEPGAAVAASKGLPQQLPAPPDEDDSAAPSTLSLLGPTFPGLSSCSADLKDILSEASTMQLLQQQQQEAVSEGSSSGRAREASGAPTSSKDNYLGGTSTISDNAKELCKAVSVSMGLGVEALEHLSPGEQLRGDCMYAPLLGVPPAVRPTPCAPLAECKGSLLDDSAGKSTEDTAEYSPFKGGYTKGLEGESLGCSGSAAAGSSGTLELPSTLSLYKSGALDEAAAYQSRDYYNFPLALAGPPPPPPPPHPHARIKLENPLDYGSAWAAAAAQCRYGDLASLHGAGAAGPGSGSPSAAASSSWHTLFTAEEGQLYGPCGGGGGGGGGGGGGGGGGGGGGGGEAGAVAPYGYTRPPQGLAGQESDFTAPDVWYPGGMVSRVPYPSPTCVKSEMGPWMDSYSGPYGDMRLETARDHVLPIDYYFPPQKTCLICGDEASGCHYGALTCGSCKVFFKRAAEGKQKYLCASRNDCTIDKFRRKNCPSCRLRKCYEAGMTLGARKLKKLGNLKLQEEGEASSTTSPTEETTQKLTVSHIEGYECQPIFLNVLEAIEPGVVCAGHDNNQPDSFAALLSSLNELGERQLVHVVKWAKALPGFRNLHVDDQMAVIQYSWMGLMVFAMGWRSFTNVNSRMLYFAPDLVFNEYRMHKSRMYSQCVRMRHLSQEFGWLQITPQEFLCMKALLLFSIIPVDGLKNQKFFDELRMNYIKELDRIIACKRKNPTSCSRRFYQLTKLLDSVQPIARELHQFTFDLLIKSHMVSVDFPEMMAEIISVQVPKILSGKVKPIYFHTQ
Description: Inhibition of human androgen receptor

The target in test [6] is Glucocorticoid receptor (Rattus norvegicus) (UniProt P06536). As to the kind of experiment: Inhibition of glucocorticoid receptor mediated tyrosine amino transferase activity.
Test [7] addresses T3, Progesterone receptor (Homo sapiens, UniProt P06401).
T3 sequence (P06401 whole entry): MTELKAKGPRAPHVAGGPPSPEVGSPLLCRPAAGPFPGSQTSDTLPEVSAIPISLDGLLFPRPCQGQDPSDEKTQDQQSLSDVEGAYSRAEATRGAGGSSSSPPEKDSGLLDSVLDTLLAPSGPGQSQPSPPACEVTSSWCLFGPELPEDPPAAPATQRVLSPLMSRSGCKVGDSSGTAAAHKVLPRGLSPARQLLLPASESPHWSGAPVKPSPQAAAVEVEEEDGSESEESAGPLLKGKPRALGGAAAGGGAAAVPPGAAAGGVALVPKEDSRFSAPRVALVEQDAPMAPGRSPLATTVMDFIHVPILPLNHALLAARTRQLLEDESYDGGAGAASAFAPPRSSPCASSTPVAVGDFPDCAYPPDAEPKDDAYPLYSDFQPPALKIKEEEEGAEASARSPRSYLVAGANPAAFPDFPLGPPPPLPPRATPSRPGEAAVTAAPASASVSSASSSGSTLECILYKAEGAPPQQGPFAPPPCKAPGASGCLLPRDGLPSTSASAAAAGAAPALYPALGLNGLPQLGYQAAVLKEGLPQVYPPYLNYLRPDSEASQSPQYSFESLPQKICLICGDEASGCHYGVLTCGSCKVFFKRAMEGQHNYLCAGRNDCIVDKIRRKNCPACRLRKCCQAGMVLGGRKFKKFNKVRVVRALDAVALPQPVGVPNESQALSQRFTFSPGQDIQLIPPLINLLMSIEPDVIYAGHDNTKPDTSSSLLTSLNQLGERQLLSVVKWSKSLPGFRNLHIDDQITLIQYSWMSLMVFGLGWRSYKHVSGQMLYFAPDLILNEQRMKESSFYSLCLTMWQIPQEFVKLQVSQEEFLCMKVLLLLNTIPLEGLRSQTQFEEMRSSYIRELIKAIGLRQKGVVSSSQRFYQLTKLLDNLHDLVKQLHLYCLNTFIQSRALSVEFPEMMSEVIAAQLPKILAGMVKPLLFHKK
The test is described as follows: Inhibition of human progesterone receptor.

Glucocorticoid receptor (Rattus norvegicus), sequence (P06536 whole entry, looked up): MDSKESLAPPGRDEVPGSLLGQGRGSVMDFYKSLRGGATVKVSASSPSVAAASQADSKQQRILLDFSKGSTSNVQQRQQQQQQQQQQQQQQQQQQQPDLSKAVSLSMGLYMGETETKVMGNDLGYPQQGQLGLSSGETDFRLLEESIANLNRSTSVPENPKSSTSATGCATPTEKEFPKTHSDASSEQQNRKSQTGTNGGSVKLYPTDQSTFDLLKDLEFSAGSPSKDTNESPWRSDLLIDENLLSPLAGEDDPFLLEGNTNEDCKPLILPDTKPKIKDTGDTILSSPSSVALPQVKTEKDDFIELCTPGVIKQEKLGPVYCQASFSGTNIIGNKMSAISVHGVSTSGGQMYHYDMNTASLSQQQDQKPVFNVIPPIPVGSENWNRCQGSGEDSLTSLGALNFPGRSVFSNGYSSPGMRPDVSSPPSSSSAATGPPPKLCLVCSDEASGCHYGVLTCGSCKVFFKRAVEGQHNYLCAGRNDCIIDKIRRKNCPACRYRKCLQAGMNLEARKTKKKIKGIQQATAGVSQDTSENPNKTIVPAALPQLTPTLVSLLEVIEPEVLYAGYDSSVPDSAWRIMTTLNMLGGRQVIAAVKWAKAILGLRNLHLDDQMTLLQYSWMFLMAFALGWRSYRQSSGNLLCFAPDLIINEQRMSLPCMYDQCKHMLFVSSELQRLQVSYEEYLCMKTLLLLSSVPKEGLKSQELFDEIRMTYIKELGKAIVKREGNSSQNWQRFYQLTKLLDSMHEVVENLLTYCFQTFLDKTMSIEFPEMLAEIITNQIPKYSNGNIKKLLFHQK

As a reminder, the Inhibition is the change of the read-out against control, counted positive when it falls. For orientation: Ki means the equilibrium dissociation constant of an inhibitor or competing ligand from its target. By inhibition is commonly meant the relative decrease from the control value, in per cent. As to `C#C[C@]1(O)CC[C@H]2[C@@H]3CCC4=CC(=O)CCC4=C3[C@@H](c3ccc(N(C)CCC[C@@]4(O)CC[C@@]5(C)[C@H](C[C@@H](O)[C@@H]6[C@@H]5C[C@H](O)[C@]5(C)[C@@H]([C@H](C)CCC(=O)O)CC[C@@H]65)C4)cc3)C[C@@]21C`, in test [1], the Inhibition stood at 0%. For the same compound, the Ki in test [2] came to 0.11 nM; in test [4] it was 4.3 nM. In test [3], this compound returned an inhibition of 6%.

On to `C#C[C@]1(O)CC[C@H]2[C@@H]3CCC4=CC(=O)CCC4=C3[C@@H](c3ccc(N(C)CCOC4CC[C@@]5(C)[C@H](CC[C@@H]6[C@@H]5C[C@H](O)[C@]5(C)[C@@H]([C@H](C)CCC(=O)O)CC[C@@H]65)C4)cc3)C[C@@]21C` (stereo not given in full), for which the Inhibition in test [1] came out at 22%. The inhibition constant Ki in test [2] was 0.16 nM; in test [4], 0.38 nM. Besides, the inhibition in test [3] was determined as 69%.

`C#C[C@]1(O)CC[C@H]2[C@@H]3CCC4=CC(=O)CCC4=C3[C@@H](c3ccc(N(C)CCOC4CC[C@@]5(C)[C@@H](C4)C[C@@H](O)[C@@H]4[C@@H]5C[C@H](O)[C@]5(C)[C@@H]([C@H](C)CCC(=O)O)CC[C@@H]45)cc3)C[C@@]21C` (stereo in doubt; form 1): in test [3], the inhibition amounted to 49%.

As for `C#C[C@]1(O)CC[C@H]2[C@@H]3CCC4=CC(=O)CCC4=C3[C@@H](c3ccc(N(C)CCNC(=O)O[C@@H]4C[C@@H]5CC(O)CC[C@]5(C)[C@H]5C[C@H](O)[C@]6(C)[C@@H]([C@H](C)CCC(=O)O)CC[C@H]6[C@H]45)cc3)C[C@@]21C` (stereo not given in full), the Ki in test [2] worked out at 1.2 nM; in test [5], 18 nM; in test [6], 730 nM; in test [7], 4.6 nM; in test [4], 37 nM.

For the compound `CC#C[C@]1(O)CC[C@H]2[C@@H]3CCC4=CC(=O)CCC4=C3[C@@H](c3ccc(N(C)CCO[C@H]4CC[C@@]5(C)[C@@H](C4)C[C@@H](O)[C@@H]4[C@@H]5C[C@H](O)[C@]5(C)[C@@H]([C@H](C)CCC(=O)NCCS(=O)(=O)O)CC[C@@H]45)cc3)C[C@@]21C`, the Inhibition in test [1] is -6%.

In the case of `C#C[C@]1(O)CC[C@H]2[C@@H]3CCC4=CC(=O)CCC4=C3[C@@H](c3ccc(N(C)CCOC4CC[C@@]5(C)[C@H](CC[C@@H]6[C@@H]5CC[C@]5(C)[C@@H]([C@H](C)CCC(=O)O)CC[C@@H]65)C4)cc3)C[C@@]21C` (stereo not given in full), the Ki was 0.22 nM in test [2] and 2.7 nM in test [4].

Take `C#C[C@]1(O)CC[C@H]2[C@@H]3CCC4=CC(=O)CCC4=C3[C@@H](c3ccc(N(C)CCOC4CC[C@@]5(C)[C@@H](C4)C[C@@H](O)[C@@H]4[C@@H]5C[C@H](O)[C@]5(C)[C@@H]([C@H](C)CCC(=O)O)CC[C@@H]45)cc3)C[C@@]21C` (stereo in doubt; form 2): the inhibition in test [3] came to 72%.

Take `CC#C[C@]1(O)CC[C@H]2[C@@H]3CCC4=CC(=O)CC[C@]4(Cc4ccc(CCCO[C@H]5CC[C@@]6(C)[C@@H](C5)C[C@@H](O)[C@@H]5[C@@H]6C[C@H](O)[C@]6(C)[C@@H]([C@H](C)CCC(=O)O)CC[C@@H]56)cc4)C3=CC[C@@]21C`: in test [1], the Inhibition was -16%. Further, the inhibition in test [3] was 5%.

Turning to `C#C[C@]1(O)CC[C@H]2[C@@H]3CCC4=CC(=O)CCC4=C3[C@@H](c3ccc(N(C)CCOC4CC[C@@]5(C)[C@@H](C4)C[C@@H](O)[C@@H]4[C@@H]5CC[C@]5(C)[C@@H]([C@H](C)CCC(=O)O)CC[C@@H]45)cc3)C[C@@]21C` (stereo not given in full), the Ki was 0.18 nM in test [2] and 0.76 nM in test [4].

Consider `C#C[C@]1(O)CC[C@H]2[C@@H]3CCC4=CC(=O)CCC4=C3[C@@H](c3ccc(N(C)C(=O)CNC(=O)O[C@H]4C[C@H]5[C@@H]([C@H](O)C[C@@H]6C[C@H](O)CC[C@@]65C)[C@@H]5CC[C@H]([C@H](C)CCC(=O)O)[C@@]45C)cc3)C[C@@]21C`, for which the inhibitory constant (Ki) in test [2] was 6.5 nM; in test [6], 500 nM; in test [4] it was 100 nM.
